In patent US20060258738A1, “Use of dronabinol for treatment of side effects of Hepatitis C therapy” (priority 2005, published 2006):

Tests used:
[1] = tested on: GI side effects (nausea/vomiting, anorexia and weight loss) related to anti-HCV therapy; assay: Retrospective chart review: open label dronabinol for GI side effects of anti-HCV therapy, positive response; type: in vivo, human; conditions: whole cohort
Procedure: A retrospective chart review of 22 patients with chronic HCV receiving IFN (Pegylated n=18, standard n=4) and RBV was performed. All were receiving open label dronabinol for specific GI side effects (nausea/vomiting, anorexia and weight loss) related to anti-HCV therapy. Over half the cohort (13/22) were co-infected with HIV. Demographic, clinical, and virological data was recorded at baseline (pre dronabinol therapy); Body Mass Index (BMI) was calculated at baseline, and at the end of dronabinol therapy.
A positive response to dronabinol was defined as follows: […]
Subjective: Documentation in chart of improvement in symptoms of nausea, vomiting or anorexia, as reported by patient.
Objective: No change or increase in BMI at end of dronabinol treatment compared to baseline.

[2] = Retrospective chart review: adverse events, tolerability and discontinuation of dronabinol

With `CCCCCc1cc(O)c2c(c1)OC(C)(C)[C@@H]1CCC(C)=C[C@@H]21` [dronabinol, delta-9-tetrahydrocannabinol] the “Positive outcome, both for improvement in symptoms and stabilization or increase in BMI” value [1] was “over 40%”, the Tolerability ([2]; the 4 members of the cohort aged 60 or greater) was “well tolerated” and the Tolerability ([2]; whole cohort, including those with HIV/HCV) was “well-tolerated by the majority of the cohort”.
